These results are taken from US10800732B2, “Substituted malonamides and their use as antibacterial drugs” (National Taiwan University, priority 2015, dated 2020).

Series [1] relates to Salmonella Typhimurium ATCC 14028. Kind of series: MIC, Salmonella Typhimurium. The class given is cell-based. The conditions noted are these: Salmonella enterica.
For series [2], the system named is S. aureus ATCC 12598. Kind of series: MIC, S. aureus ATCC 12598. The format is cell-based, Staphylococcus aureus.
In series [3] the test system is Acinetobacter baumannii BCRC 80276. Nature of the series: MIC, Acinetobacter baumannii. The class given is cell-based. The following applies: BCRC80276.
The subject of series [4] is clinical isolated VISA strain. Nature of the series: MIC, VISA. The class given is cell-based, vancomycin-intermediate Staphylococcus aureus. The conditions noted are these: VISA, clinical isolate.
In series [5] the test system is Escherichia coli ATCC 25922. Nature of the series: MIC, Escherichia coli. The class given is cell-based. The following applies: ATCC25922.
The subject of series [6] is S. aureus NCTC 8325. Kind of series: Intracellular ATP leakage (ATPlite one-step). The format is cell-based, Staphylococcus aureus. The conditions noted are these: 4×MIC for 15 min. The method, then: FIG. 6. Intracellular ATP leakage of S. aureus treated with SC5005, SC5035 and antibiotics. […] Data was presented as percentage of intracellular ATP level to that of untreated bacteria cells (considered as 100%). Bars represent the mean, and error bars represent the SD (n=3). ***: p-value <0.001
To investigate whether SC5005 and SC5035 also act on bacterial cell membrane, intracellular ATP levels of S. aureus treated with SC5005, SC5035 and antibiotics for 15 min was determined by using ATPlite one-step assay kit.
On the technique in general: ATP-based viability assays read luminescence as a measure of living cells.

Series [7] relates to human red blood cells. Nature of the series: Hemolytic activity. The class given is cell-based. The procedure:
FIG. 9. Hemolytic activities of SC5005 and SC5035 on human red blood cell. Human red blood cells were incubated with SC5005 (A) and SC5035 (B) for 1 h followed by measuring the absorption of RBC released hemoglobin at 540 nm with microplate reader. Cell treated with 1% triton X-100 serves as positive control (P.C.; 100% hemolysis), and those treated with normal saline serves as negative control (N.C.) Bars represent the mean, and error bars represent the SD (n=3).
As data shown above, SC5005 and SC5035 can kill bacteria via forming pore in bacterial membrane. To see whether the pore-forming activity of these two compounds is specific for bacterial membrane, the hemolytic activities of these two agents on human red blood cells were accessed.

The subject of series [8] is MRSA (ATCC 43300). Nature of the series: Minimal biofilm eradication concentration, MRSA in the biofilm. The format is cell-based, methicillin-resistant Staphylococcus aureus. The conditions noted are these: MRSA (ATCC 43300) in the biofilm. The method, then:
A biofilm is composed of attached microorganisms enclosed in an extracellular polymeric substance matrix. Bacteria embedded in the biofilm are protected from antibiotic-mediated killing and the immune response. Reports have shown that biofilm formation is an important factor contributing to S. aureus infections of the skin, lung and indwelling medical devices such as catheters. Thus, the effect of SC5005 on MRSA in a biofilm was assayed.

Series [9] relates to S. aureus NCTC 8325. Kind of series: Biosynthesis of macromolecules (3H precursor incorporation). The format is cell-based, Staphylococcus aureus. The following applies: 4×MIC for 1 h. The procedure: FIG. 5. Effect of SC5005 and SC5035 on the biosynthesis of macromolecules in S. aureus. […] Meanwhile, ofloxacin (1 mg/L), rifampicin (1 mg/L), erythromycin (2 mg/L), and vancomycin (2 mg/L) were used as control inhibitors for the biosynthesis of DNA, RNA, protein and cell wall, respectively. Data are means of three independent experiments. Error bars represent the SD.
To investigate the mode of action of SC5005, a new derivative, SC5035, with better selectivity of antibacterial activity over cytotoxicity was included in the assays. First, the impacts of these two compounds on the biosynthesis of important macromolecules, including DNA, RNA, protein and cell wall, in S. aureus NCTC 8325 were assessed. Bacteria cells were incubated with [^3H]thymidine to assess DNA synthesis, [^3H] uridine to assess RNA synthesis, [^3H] leucine to assess protein synthesis, and [^3H] N-Acetyl-D-glucosamine to assess cell wall synthesis. The ofloxacin, rifampicin, erythromycin and vancomycin were used as control inhibitor for DNA, RNA, protein, and cell wall biosynthesis, respectively. Inhibition of biosynthesis pathway was determined by a reduction in the radial isotope signal of bacteria.

Series [10] relates to MSSA ATCC 29213. Kind of series: MIC, MSSA ATCC 29213. The format is cell-based, Staphylococcus aureus. The following applies: Table 6.
The test system of series [11] is MRSA (ATCC 43300). Kind of series: MIC, MRSA ATCC 43300. The conditions noted are these: MRSA (ATCC 43300). The format is cell-based, methicillin-resistant Staphylococcus aureus.
The subject of series [12] is MRSA (ATCC 33592). Nature of the series: Survival of MRSA-infected C57BL/6 mice, intraperitoneal administration. The following applies: surviving mice, 10 mg/kg.
Procedure: (A) Effect of intraperitoneal administration of SC5005 on the survival of MRSA-infected mice. Female C57BL/6 mice were inoculated intraperitoneally with 5×10^4 CFU of MRSA (ATCC 33592). Infected mice received intraperitoneal injection of 1 mg/kg (filled inverted triangles), 3 mg/kg (filled triangles) and 10 mg/kg (filled squares) SC5005 or vehicle (mock) (filled circles) once per day for three consecutive days. Survival rates, as represented by Kaplan-Meier curves, are shown for the mock and SC5005 treatment groups. *P<0.05, for the difference between treated groups and the control group. (B) Body weight changes in individual vehicle or SC5005-treated MRSA-infected mice. Each line represents an individual mouse. The black lines indicate mice that survived until the end of the study and the grey lines indicate mice that were euthanized during the study.
To further evaluate the therapeutic potential of SC5005 against MRSA infection, inbred C57BL/6 mice were intraperitoneally injected with a lethal dose (5×10^4 CFU) of MRSA (ATCC 33592), followed by intraperitoneal administration of vehicle control or SC5005 (1 mg/kg, 3 mg/kg or 10 mg/kg) at 1 h, 24 h and 48 h post-infection (N=5 for each group).
Series [13] deals with S. aureus NCTC 8325. Kind of series: Transmission electron microscopy of cell membrane. The class given is cell-based, Staphylococcus aureus. The conditions noted are these: 15 min treatment, 100,000 magnifications. The procedure: FIG. 8. Transmission electron microscopy image of S. aureus after SC5005 treatment. S. aureus NCTC 8325 was treated with (A) mock or (B) SC5005 for 15 min followed by glutaraldehyde (2.5%) fixation and osimium tetraoxide (1%) staining. The membrane integrity was then observed with transmission electron microscopy at 100,000× magnification. The outer black ring marked with CW represents cell wall, and the inner black ring marked with CM represents cell membrane. The arrow points the pore formed in S. aureus cell membrane.
To investigate how SC5005 changes membrane permeability of S. aureus, bacteria cells were treated with SC5005 for 15 min followed by glutaraldehyde (2.5%) fixation and osimium tetraoxide (1%) staining. The membrane of bacteria was then observed by Transmission electron microscopy (TEM) at 100,000 magnifications (FIG. 8). The outer clear black circle is cell wall of S. aureus, and the inner clear black circle is cell membrane of S. aureus. These two circles of control treated S. aureus remain intact, and the cell membrane is undamaged.

Series [14] concerns S. aureus NCTC 8325. Kind of series: Membrane integrity (SYTO 9 / propidium iodide staining). The class given is cell-based, Staphylococcus aureus. The conditions noted are these: 4×MIC (Triton X-100: 10%) for 15 minutes. The source says: FIG. 7. Membrane integrity of S. aureus after SC5005, SC5035 and five common antibiotics treatment. […] SYTO 9, a green fluorescence dye, stains chromosome of all bacteria cells, regardless of the membrane integrity. In contrast, propidium iodide (PI), a red fluorescence dye, only stains cell with damaged membrane. Thus, bacteria cell with intact membrane can only be stained by SYTO 9, and cell with perforated membrane will be stained by both fluorescence dyes, showing a yellow color in merged images.
To further validate the action mechanism of SC5005 and SC5035, two fluorescence dyes were used for evaluation of membrane integrity of drug treated S. aureus. The propidium iodide dye only stains cells with perforated membrane, while the SYTO 9 stains all cells in spite of membrane integrity.

Values after ≈ are worked out from the molar mass of the structure shown. Like-named read-outs stand apart in the source and are kept apart here. A value given as a limit tells only on which side of the number the result lay.

For the compound `O=C(Nc1ccc(Cl)c(C(F)(F)F)c1)Nc1ccc(Cl)c(C(F)(F)F)c1` [SC78], the MIC (in general, the lowest concentration found to suppress growth) was more than 64 µg/mL in series [1]; 0.25 µg/mL (≈ 0.599 µM) in series [2] (Staphylococcus aureus, ATCC12598, read-out: MIC); more than 64 µg/mL in series [3]; 0.25 µg/mL (≈ 0.599 µM) in series [4] (Staphylococcus aureus, read-out: MIC); more than 64 µg/mL in series [5].

For the compound `O=C(Nc1ccc(Cl)c(C(F)(F)F)c1)C(CCCl)C(=O)Nc1ccc(Cl)c(C(F)(F)F)c1` [SC5005], in series [6], the “intracellular ATP levels” value is reported as “significantly dropped”. In addition, the “hemolysis of RBC” value in series [7] is on record as “no significant hemolysis”. The MBEC in series [8] is on record as 16 mg/L. The MIC in series [2], in series [10], in [11] and in series [4] was 0.5 µg/mL (≈ 0.958 µM) each time. Moreover, the “incorporation signal in DNA, RNA, protein and cell wall biosynthesis” value in [9] was “lower signal in all four macromolecule biosynthesis pathway”. The “time for body weight to return to pre-infection levels” value in series [12] lay within 2 to 5 days. In addition, the “pore formation in cell membrane (TEM)” value in series [13] was “a pore was observed in the membrane of most bacteria cells”. In addition, the “propidium iodide staining (membrane integrity)” value in series [14] is recorded as “can be stained by propidium iodide”.
